Assay results published in patent US20160333006A1, “ARYL LACTA KINASE INHIBITORS” (Bristol-Myers Squibb Company, priority 2014, published 2016).

What was measured:
GST-Xa-hAAK1 = target: T1, GST-Xa-hAAK1 (Homo sapiens, UniProt Q2M2I8); test: AAK1 kinase assay; format: biochemical; conditions: ATP 22 μM
T1 construct: made in house
Procedure: The assays were performed in U-bottom 384-well plates. […] The reactions were initiated by the combination of bacterially expressed, GST-Xa-hAAK1 with substrates and test compounds. The reactions were incubated at room temperature for 3 hours and terminated by adding 60 μl of 35 mM EDTA buffer to each sample. The reactions were analyzed on the Caliper LabChip 3000 (Caliper, Hopkinton, Mass.) by electrophoretic separation of the fluorescent substrate and phosphorylated product. […] Compounds were dissolved at 10 mM in dimethylsulfoxide (DMSO) and evaluated at eleven concentrations. IC50 values were derived by non-linear regression analysis.

[1] = target: T2, AAK1 (full length human) in HEK293F cells (Homo sapiens, UniProt Q2M2I8); test: HEK281 cell-based assay (phospho-mu2 Western blot in transfected HEK293F cells); conditions: 3 hours
T2 construct: fused on or other part: HA tag (AAK1/HA in pIRES vector)
Procedure: On day one, cells were plated on a 10 cm dish so that they are ˜80% confluent at time oftransfection. Roughly 12 million cells were in a 10 cm dish at time of transfection. […] The DNA was comprised of a mixture (per 10 cm dish) containing 3 ug AAK1/HA/pIRES (full length human, NCBI accession no. NP_055726.2), 45 μg Flag/AP2MI/pcDNA (full length human), and 1.5 ml OPTI-MEM. The Lipofectamine 2000 is made up of a mixture (per 10 cm dish) containing 144 μl Lipofectamine 2000 and 1.5 ml OPTI-MEM. Each mixture was transferred to individual 15 ml tubes and incubated at RT for 5 minutes, and then the two mixes were combined and incubated at RT for 20 minutes. Growth media was then aspirated from each 10 cm plate and replaced with 10 ml of DMEM+10% FBS (no GPS). Finally, 3 ml DNA/Lipofectamine mix was added to each 10 cm dish and mix gently followed by incubate of plate overnight at 37° C. and 5% CO2.
On day three, compounds were diluted in 100% DMSO at 1000× final concentration, followed by 3-fold serial dilutions for a total of 5 concentrations tested. Four compounds were tested per 10 cm dish. One ul of each compound dilution was then pipetted into a deep-well, 96-well plate, followed by addition of 500 μl DMEM+0.5% FBS into each well for a 2× final concentration of each compound. Cells were resuspended in a 10 cm dish by simple pipetting (HEK293 cells come off the plate that easy at this point) and then transferred to a 50 ml conical tube and pelleted by centrifugation at 1000 rpm for 5 min. Cell pellets were then resuspended in 2.75 ml DMEM+0.5% FBS per 10 cm dish and 100 μl of cell suspension transferred into each well of 96-well TC plate. Finally, 100 μl of 2× compound diluted in DMEM+0.5% FBS was then added into wells containing cell suspension for a 1× final concentration. Plates were then incubated at 37° C. and 5% CO2 for 3 hours followed by transferring of cell suspensions from each well into 12-tube PCR strips. The PCR strips were spun in a tip rack at 1000 rpm for 5 minutes to pellet cells and media was then removed by pipetting without disturbing the cell pellet.
Five ul of 10× NuPage Sample Reducing Agent (with 50 mM DTT) was to each sample followed by heat denaturing at 70 C for 10 min on PCR machine. […] For controls, 2 ng of phospho-mu2 or 20 ng mu2/Flag proteins were loaded in the last well of each gel. After SDS-PAGE, samples on each gel were transferred to PVDF membrane using an iBlot and membranes were blocked for one hour in TBST+5% milk, followed by wash 3× for 5-10 min with TBST.
Finally, the camera was set up to take a picture every 30 seconds for 10 minutes and the best image saved for each blot with no saturated signal (when the signal is saturated, the bands will be highlighted red). A volume analysis on each band was performed to obtain density values. Percent inhibition was calculated for each sample by first normalizing to total Mu2 expression levels and then comparing to 0% and 100% controls. IC50 values were then calculated using Excel fitting software.

[2] = phospho-mu2, given as IC50 range
[3] = phospho-mu2 normalized to total Mu2

T2 sequence (Q2M2I8 1-822 limits assumed): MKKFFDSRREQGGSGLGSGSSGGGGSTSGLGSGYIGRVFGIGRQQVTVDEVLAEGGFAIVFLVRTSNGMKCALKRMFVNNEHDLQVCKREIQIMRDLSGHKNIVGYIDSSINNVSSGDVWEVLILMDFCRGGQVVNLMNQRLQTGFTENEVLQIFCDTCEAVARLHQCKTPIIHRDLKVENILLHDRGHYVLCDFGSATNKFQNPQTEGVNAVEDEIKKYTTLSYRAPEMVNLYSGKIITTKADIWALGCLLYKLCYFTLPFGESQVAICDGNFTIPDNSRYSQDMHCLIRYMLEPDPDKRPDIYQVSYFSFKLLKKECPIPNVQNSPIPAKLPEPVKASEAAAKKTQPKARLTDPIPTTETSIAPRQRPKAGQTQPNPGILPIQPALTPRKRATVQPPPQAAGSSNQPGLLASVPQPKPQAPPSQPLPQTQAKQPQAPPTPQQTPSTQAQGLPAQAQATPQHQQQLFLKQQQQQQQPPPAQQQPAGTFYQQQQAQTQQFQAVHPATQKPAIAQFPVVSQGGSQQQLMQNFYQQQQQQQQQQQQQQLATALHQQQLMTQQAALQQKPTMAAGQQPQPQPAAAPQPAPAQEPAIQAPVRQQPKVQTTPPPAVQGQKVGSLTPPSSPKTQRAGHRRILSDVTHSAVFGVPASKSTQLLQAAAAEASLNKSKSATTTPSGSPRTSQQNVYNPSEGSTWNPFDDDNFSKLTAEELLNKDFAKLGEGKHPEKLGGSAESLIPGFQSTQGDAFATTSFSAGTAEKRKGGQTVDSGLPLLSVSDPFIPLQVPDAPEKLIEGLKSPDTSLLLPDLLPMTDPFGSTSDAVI
T1 sequence (Q2M2I8 whole entry): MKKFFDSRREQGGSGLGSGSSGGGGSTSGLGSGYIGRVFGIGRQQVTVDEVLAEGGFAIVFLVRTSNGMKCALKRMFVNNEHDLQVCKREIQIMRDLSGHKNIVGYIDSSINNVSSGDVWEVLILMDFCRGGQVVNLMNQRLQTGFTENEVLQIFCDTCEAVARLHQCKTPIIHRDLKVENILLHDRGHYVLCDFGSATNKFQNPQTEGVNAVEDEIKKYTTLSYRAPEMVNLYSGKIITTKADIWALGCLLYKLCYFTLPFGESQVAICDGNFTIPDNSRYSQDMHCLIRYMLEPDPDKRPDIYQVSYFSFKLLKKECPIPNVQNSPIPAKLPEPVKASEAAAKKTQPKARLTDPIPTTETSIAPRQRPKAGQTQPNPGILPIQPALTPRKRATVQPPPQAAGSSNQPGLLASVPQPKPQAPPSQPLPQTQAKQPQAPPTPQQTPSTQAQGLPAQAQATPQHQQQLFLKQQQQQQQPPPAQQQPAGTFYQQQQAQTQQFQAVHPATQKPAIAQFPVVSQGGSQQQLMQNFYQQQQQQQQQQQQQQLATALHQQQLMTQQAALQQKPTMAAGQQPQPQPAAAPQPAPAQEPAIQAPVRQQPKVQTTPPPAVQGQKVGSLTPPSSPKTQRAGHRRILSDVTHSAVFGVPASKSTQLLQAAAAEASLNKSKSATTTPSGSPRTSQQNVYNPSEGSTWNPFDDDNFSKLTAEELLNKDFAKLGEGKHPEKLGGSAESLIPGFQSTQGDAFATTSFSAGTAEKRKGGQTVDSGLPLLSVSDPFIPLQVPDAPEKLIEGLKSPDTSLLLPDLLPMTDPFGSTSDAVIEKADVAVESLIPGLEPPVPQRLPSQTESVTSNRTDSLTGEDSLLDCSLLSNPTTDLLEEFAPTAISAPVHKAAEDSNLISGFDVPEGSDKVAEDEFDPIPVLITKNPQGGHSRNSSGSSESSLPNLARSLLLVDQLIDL

Row | IC50 (GST-Xa-hAAK1; given as IC50 range) | IC50 [1, 2] | IC50 (GST-Xa-hAAK1; 3 hours at room temperature) | IC50 [1, 3] | Compound
1 | 0.001 to 0.01 µM | 0.001 to 0.01 µM |  |  | Cc1cc2c(cc1OC[C@@H](N)CC(C)C)[nH]c(=O)c1cnccc12 [Example 109, (S)-8-((2-amino-4-methylpentyl)oxy)-9-methylbenzo[c][2,7]naphthyridin-5(6H)-one]
2 | 0.001 to 0.01 µM | 0.001 to 0.01 µM |  |  | CC(C)C[C@H](N)COc1cc2[nH]c(=O)c3cnccc3c2cc1Br [Example 108, (S)-8-((2-amino-4-methylpentyl)oxy)-9-bromobenzo[c][2,7]naphthyridin-5(6H)-one]
3 | < 0.001 µM | 0.001 to 0.01 µM |  |  | CC(C)C[C@H](N)COc1cc2[nH]c(=O)c3cnccc3c2cc1Cl [Example 142, (S)-8-((2-amino-4-methylpentyl)oxy)-9-chlorobenzo[c][2,7]naphthyridin-5(6H)-one]
4 | 0.001 to 0.01 µM | 0.001 to 0.01 µM |  |  | Cc1nccc2c1c(=O)n(C)c1cc(OC[C@@H](N)CC(C)C)c(Br)cc21 [Example 122, (S)-8-((2-amino-4-methylpentyl)oxy)-9-bromo-4,6-dimethylbenzo[c][2,7]naphthyridin-5(6H)-one]
5 | 0.001 to 0.01 µM | 0.01 to 0.1 µM |  |  | Cn1c(=O)c2c(N)nccc2c2ccc(OCC(N)CCC(F)(F)F)cc21 (stereo not drawn) [Example 118, 4-amino-8-((2-amino-5,5,5-trifluoropentyl)oxy)-6-methylbenzo[c][2,7]naphthyridin-5(6H)-one]
6 |  |  | 0.0004 µM | 0.0023 µM | Cc1nccc2c1c(=O)n(C)c1cc(OC[C@H](N)CC(C)C)c(Br)cc21 [Example 133, (R)-8-((2-amino-4-methylpentyl)oxy)-9-bromo-4,6-dimethylbenzo[c][2,7]naphthyridin-5(6H)-one]
7 | 0.01 to 0.1 µM | 0.01 to 0.1 µM |  |  | Cn1c(=O)c2cnccc2c2cc(Cl)c(OCC(N)CCC(F)(F)F)cc21 (stereo not drawn) [Example 116, 8-((2-amino-5,5,5-trifluoropentyl)oxy)-9-chloro-6-methylbenzo[c][2,7]naphthyridin-5(6H)-one]
8 | 0.001 to 0.01 µM | 0.001 to 0.01 µM |  |  | CC(C)C[C@H](N)COc1cc2c(cc1C(F)F)c1ccncc1c(=O)n2C [Example 121, (S)-8-((2-amino-4-methylpentyl)oxy)-9-(difluoromethyl)-6-methylbenzo[c][2,7]naphthyridin-5(6H)-one]
9 |  |  | 0.016 µM | 0.056 µM | Cn1c(=O)c2cnccc2c2cc(C#N)c(OCC(N)CCC(F)(F)F)cc21 (stereo not drawn) [Example 126, 8-((2-amino-5,5,5-trifluoropentyl)oxy)-6-methyl-5-oxo-5,6-dihydrobenzo[c][2,7]naphthyridine-9-carbonitrile]
10 | 0.001 to 0.01 µM | 0.001 to 0.01 µM |  |  | Cc1nccc2c1c(=O)n(CCO)c1cc(OC[C@@H](N)CC(C)C)c(Br)cc21 [Example 143, (S)-8-((2-amino-4-methylpentyl)oxy)-9-bromo-6-(2-hydroxyethyl)-4-methylbenzo[c][2,7]naphthyridin-5(6H)-one]
11 | 0.001 to 0.01 µM | 0.01 to 0.1 µM |  |  | Cn1c(=O)c2cnccc2c2cc(-c3cnco3)c(OCC(N)CCC(F)(F)F)cc21 (stereo not drawn) [Example 114, 8-((2-amino-5,5,5-trifluoropentyl)oxy)-6-methyl-9-(oxazol-5-yl)benzo[c][2,7]naphthyridin-5(6H)-one]
12 | 0.01 to 0.1 µM | 0.01 to 0.1 µM |  |  | Cc1nccc2c1c(=O)n(C)c1cc(OC[C@@H](N)CC(C)C)c(-c3ccccn3)cc21 [Example 86, (S)-8-((2-amino-4-methylpentyl)oxy)-4,6-dimethyl-9-(pyridin-2-yl)benzo[c][2,7]naphthyridin-5(6H)-one]
13 | 0.001 to 0.01 µM | 0.001 to 0.01 µM |  |  | Cn1c(=O)c2cnccc2c2cc(Cl)c(OCC(N)CCC(F)(F)F)cc21 (stereo not drawn) [Example 117, 8-((2-amino-5,5,5-trifluoropentyl)oxy)-9-chloro-6-methylbenzo[c][2,7]naphthyridin-5(6H)-one]
14 | 0.001 to 0.01 µM | 0.001 to 0.01 µM |  |  | Cn1c(=O)c2cnccc2c2cc(Br)c(OCC(N)CCC(F)(F)F)cc21 (stereo not drawn) [Example 113, 8-((2-amino-5,5,5-trifluoropentyl)oxy)-9-bromo-6-methylbenzo[c][2,7]naphthyridin-5(6H)-one]
15 |  | 0.001 to 0.01 µM |  |  | Cn1c(=O)c2c(N)nccc2c2ccc(OCC(N)CCC(F)(F)F)cc21 (stereo not drawn) [Example 120, 4-amino-8-((2-amino-5,5,5-trifluropentyl)oxy)-6-methylbenzo[c][2,7]naphthyridin-5(6H)-one]
16 | 0.1 to 2 µM |  |  |  | COc1ccc2c3ccnc(C)c3c(=O)n(C)c2c1 [Example 144, 8-methoxy-4,6-dimethylbenzo[c][2,7]naphthyridin-5(6H)-one]
17 | 0.1 to 2 µM |  |  |  | COc1cncc2c(=O)n(C)c3cc(OC[C@@H](N)CC(C)C)ccc3c12 [Example 98, (S)-8-((2-amino-4-methylpentyl)oxy)-1-methoxy-6-methylbenzo[c][2,7]naphthyridin-5(6H)-one]
18 | 0.001 to 0.01 µM |  |  |  | Cn1c(=O)c2cnccc2c2ccc(OCC(N)CCC(F)(F)F)cc21 (stereo not drawn) [Example 112, 8-((2-amino-5,5,5-trifluoropentyl)oxy)-6-methylbenzo[c][2,7]naphthyridin-5(6H)-one]
19 |  | 0.001 to 0.01 µM |  |  | Cn1c(=O)c2c(N)nccc2c2ccc(OCC(N)CCC(F)(F)F)cc21 (stereo not drawn) [Example 119, 4-amino-8-((2-amino-5,5,5-trifluoropentyl)oxy)-6-methylbenzo[c][2,7]naphthyridin-5(6H)-one]
20 | 0.01 to 0.1 µM |  |  |  | CC(C)CC(C)COc1ccc2c3ccncc3c(=O)n(C)c2c1 (stereo not drawn) [Example 150, 8-((2,4-dimethylpentyl)oxy)-6-methylbenzo[c][2,7]naphthyridin-5(6H)-one]
21 |  |  | 1.33 µM |  | Cc1nccc2c1c(=O)n(C)c1cc(OCC(O)CNC(C)C)ccc21 (stereo not drawn) [Example 147, 8-(2-hydroxy-3-(isopropylamino)propoxy)-4,6-dimethylbenzo[c][2,7]naphthyridin-5(6H)-one]
22 | 0.01 to 0.1 µM |  |  |  | CC(C)C[C@@H](COc1ccc2c3ccncc3c(=O)n(C)c2c1)N(C)C [Example 39, (S)-8-((2-(dimethylamino)-4-methylpentyl)oxy)-6-methylbenzo[c][2,7]naphthyridin-5(6H)-one]
23 | 0.001 to 0.01 µM |  |  |  | CC(C)C[C@H](N)COc1cc2c(cc1C#N)c1ccncc1c(=O)n2C [Example 5, (S)-8-((2-amino-4-methylpentyl)oxy)-6-methyl-5-oxo-5,6 dihydrobenzo[c][2,7]naphthyridine-9-carbonitrile]
24 | < 0.001 µM |  |  |  | Cc1nccc2c1c(=O)n(C)c1cc(OCC(N)CCC(F)(F)F)c(Br)cc21 (stereo not drawn) [Example 128, 8-((2-amino-5,5,5-trifluoropentyl)oxy)-9-bromo-4,6-dimethylbenzo[c][2,7]naphthyridin-5(6H)-one]
25 | 0.1 to 2 µM |  |  |  | COc1nccc2c1c(=O)n(C)c1cc(OC[C@@H](N)CC(C)C)ccc21 [Example 42, (S)-8-(2-amino-4-methylpentyloxy)-4-methoxy-6-methylbenzo[c][2,7]naphthyridin-5(6H)-one]
26 | 0.001 to 0.01 µM |  |  |  | Cc1nccc2c1c(=O)[nH]c1cc(OC[C@@H](N)CC(C)C)c(Br)cc12 [Example 49, (S)-8-(2-amino-4-methylpentyloxy)-9-bromo-4-methylbenzo[c][2,7]naphthyridin-5(6H)-one]

Row | Compound | IC50 (GST-Xa-hAAK1; given as IC50 range) | IC50 [1, 2] | IC50 (GST-Xa-hAAK1; 3 hours at room temperature) | IC50 [1, 3]
27 | Cc1nccc2c1c(=O)n(C)c1cc(OCC(N)CC(F)(F)F)c(Br)cc21 (single isomer, unassigned) [Example 138, 8-(2-amino-4,4,4-trifluorobutoxy)-9-bromo-4,6-dimethylbenzo[c][2,7]naphthyridin-5(6H)-one] | 0.001 to 0.01 µM | 0.01 to 0.1 µM |  | 
